Experimental data published in US20240036050A1, “Methods Of Detecting And Treating Hepatocellular Carcinoma” (The United States Government As Represented By The …, priority 2022, published 2024).

Legend:
Assay type in all cases: cell-based, human
[1] = tested on: autophagy-deficient HCC lines (Huh-7, Huh-7PX, Huh-7.5); assay: p62 degradation by Western blot after Torin1 treatment
Source text: (§1) FIGS. 9A-9H: Show Association between p62, autophagy status, and glypican 3 (GPC3) expression in HCC cell lines and normal hepatocytes. […] Scale bars=m. […] The results are expressed as the mean±standard deviation (SD). ***P<0.001. For each cell line 10 view fields were quantified. […] Scale bars=20 m. […] Scale bars=20 m.
PHHs or HCC cells were immobilized on glass slides and stained for p62 and glypican 3 by immunostaining. Exosomes and adherent cells were separated isolated from the cultures and lysates (20 μg of protein) prepared and examined for expression of p62, glypican 1, glypican 3 and exosome markers, CD9, TSG101 by SDS-PAGE electrophoresis and Western blotting. Cells were lysed in ice-cold lysis buffer (50 mM Tris HCl pH 8.0, 140 mM NaCl, 1.5 mM MgCl2, 0.5% NP-40 with complete protease inhibitor from Invitrogen) for 10 minutes in ice (about 1×10^6 cells/200 μL). Cells pelleted by low-speed centrifugation. The detergent compatible (DC) protein assay determined protein concentration. Samples were boiled for 10 minutes at 80° C. in the presence of 1× sodium dodecyl sulfate-polyacrylamide gel electrophoresis (SDS-PAGE)-loading buffer (250 mM Tris-HCl pH 6.8, 40% glycerol, 8% SDS, 0.57M β-mercaptoethanol, 0.12% bromophenol blue). Approximately 20 μg of protein was loaded onto 12% SDS-PAGE and transferred into a nitrocellulose membrane (LC2001 Thermo Scientific). […]

[2] = tested on: Huh-7.5 cells; assay: Exosome and microvesicle production by immuno-magnetic bead affinity flow cytometry; details: 72 hours; for exosome production and GPC3 positive exosomes: CD63 beads
Procedure: Cells were cultured in exosome-depleted medium three days before the EV analysis. Briefly, cellular debris was removed from the culture supernatant by centrifugation at 2000 g for 30 minutes. Cleared supernatants were transferred to a new tube and mixed with 0.5 volumes of total EV isolation reagent from Invitrogen Carlsbad, CA (4478359). Tubes were incubated at 40 C overnight. The following day samples were centrifuged at 10,000 g for one hour at 40 C. Carefully removed supernatant, and EV pellet was resuspended in PBS and stored at […]. EVs concentration and size distribution were determined using NanoSight (Model NTA3300 with 532 nm green laser module, Malvern, Worcestershire, UK). Biotin anti-human CD63 antibody (Clone: H5C6) was purchased from BioLegend, San Diego, CA (353018). Biotin-conjugated Annexin A1 antibody was purchased from FabGennix Frisco, TX (ANXA1-BIOTIN). Biotin conjugated heparin was purchased from Sigma-Aldrich, Saint Louis, MO (B9806-10MG). Anti-glypican-3 (sc-390587 AF488), Anti-ARF6 (sc-7971 FITC), and Anti-CD81 (sc-166029 PE) were purchased from Santa Cruz Biotechnology, Santa Cruz, CA.
Streptavidin-coated magnetic beads were purchased from Invitrogen Carlsbad, CA (10608D). Beads were prewashed in phosphate buffer saline (PBS) and then incubated with biotinylated antibodies for one hour. Antibodies to CD63 or Annexin A1 were used at a proportion of 4 μg/5 mg of beads, or biotinylated heparin was used at 100 μg/1 mg of beads. […] Following this step, the EV-bead complex was incubated with fluorescence-labeled antibodies diluted in 100 μl PBS 1% BSA for one hour at room temperature. Beads were washed in PBS 1% BSA and then analyzed on a Becton-Dickinson flow cytometer (BD FACS Celesta) using BD FACSDiva Software 6.0, San Jose, CA. […]
The bead-based assay was used to verify the production of microvesicles and exosomes by autophagy modulation. […] The impact of autophagy modulation on the production of exosomes and microvesicles was quantified by flow analysis. […] The next day captured EVs were analyzed after staining with […] by flow cytometry. […]

[3] = tested on: Huh-7.5 cells; assay: GPC3, Tsg101 and CD63 expression in HCC cells by fluorescence microscopy and Western blot; details: for GPC3 and Tsg101 expression: fluorescence microscopy
Procedure: (§2) Huh7.5 cells were cultured in DMEM high glucose with 10% fetal calf serum (FBS), L-glutamine, 1 mM sodium pyruvate, and 0.1 mM non-essential amino acids with 1% penicillin and streptomycin. Huh-7.5 cells were transfected with CD63-GFP plasmid, and multiple stable cell lines expressing (Huh-7.5-CD63-GFP) were selected using G-418 (Sigma-Aldrich, St. Louis, MO) selection. Human cholangiocarcinoma cell line (HuCCA) and human embryonic kidney cell line (HEK 293) were purchased from ATCC. These two cell lines were cultured according to the instruction provided by the supplier and maintained with regular medium change every three days. Torin 1 was purchased from EMD Millipore, Burlington, MA (475991-10MG), and Bafilomycin A1 were purchased from Cell Signaling Technology, Danvers, MA (54645S). Exosome-free fetal bovine serum was purchased from ThermoFisher Waltham, MA (A2720803). Monoclonal rabbit and mouse antibodies were used as primary antibodies in western blot as well as fluorescent microscopy imaging. Anti-CD81 monoclonal rabbit—MA5-13548—and anti-glypican3 monoclonal rabbit—MA5-16368 purchased from ThermoFisher. Anti-ARF6 monoclonal rabbit—5740S—and anti-Beta actin monoclonal rabbit—4970S purchased from Cell signaling, Anti-Tsg 101 monoclonal mouse sc-7964 purchased from Santa Cruz Biotechnology.
Western blotting was performed using a standard protocol. Cultured cells were harvested by the treatment of trypsin-EDTA (Life Technologies, Carlsbad, CA, USA) at different time points and were washed twice with PBS, then lysed in ice-cold RIPA buffer (Sigma-Aldrich, St. Louis, MO, USA) with a protease inhibitor (ThermoFisher Scientific, Waltham, MA, USA) and phosphatase inhibitor cocktail (Sigma-Aldrich, St. Louis, MO, USA). The total protein content of the extract was quantified using NanoDrop™ 2000 (ThermoFisher Scientific, Waltham, MA, USA). Cell lysates (approximately 20 μg of protein) were loaded by SDS-PAGE and transferred into a nitrocellulose membrane ([…] pore size, ThermoFisher Scientific, Waltham, MA, USA). […]

[4] = tested on: CD63-GFP stable cell line (Huh-7.5-CD63-GFP); assay: CD63-GFP expression by fluorescence microscopy after autophagy modulation; details: increasing concentrations, 72 hours
Procedure: FIGS. 5A-5D: Show impaired autophagy promotes GPC3 accumulation in exosomes. CD63-GFP stable cell line was treated with increasing concentrations of Torin1 or Bafilomycin A1 for 72 hours.
as §2, with “Anti-ARF6 monoclonal rabbit—5740S—and anti-Beta actin monoclonal rabbit—4970S purchased from Cell signaling, Anti-Tsg 101 monoclonal mouse sc-7964 purchased from Santa Cruz Biotechnology.” left out

[5] = tested on: HCC cell lines (Huh-7, Huh-7PX, Huh-7.5, HLE); assay: DQ-Red BSA endocytosis assay with Torin1 stimulation; details: Torin1 200 nM
Source text: as §1
DQ™ Red BSA (D12051, Thermo Scientific) is a fluorogenic substrate that is endocytosed in cells and traffics through early endosomes to late endosomes that then fuse with acidic hydrolase containing lysosomes. This leads to the formation of endo-lysosomes that degrade DQ-Red BSA, de-quenching the fluorescence of the dye attached to this cargo, therefore, produces bright red spots in endo-lysosomes. Equal number of cells was seeded in 6-well plate. Then, untreated and Torin1-treated live cells were incubated with DQ-Red BSA for one hour. After washing cells with PBS, cells were fixed with 4% paraformaldehyde and counterstained with Hoechst 33342 (H3570, Thermo Scientific). Cells were examined using fluorescent microscopy.
Next, it was confirmed whether HCC cell lines and non-transformed primary hepatocytes could recapitulate impaired autophagy and increased GPC3 expression specific to HCC. A panel of 6 HCC cell lines was examined for p62 expression levels compared to primary human hepatocytes (PHH) using immunocytochemistry (FIG. 9A). […]

| SMILES | p62 levels [1] | ARF6 positive microvesicles ([2]; Annexin A1 beads) | exosome production and GPC3 positive exosomes [2] | GPC3 and Tsg101 expression [3] | GPC3 and CD63 levels by Western blot ([3]; two concentrations, 72 hours) | CD63-GFP expression [4] | DQ-BSA fluorescence signal ([5]; autophagy-deficient HCC lines (Huh-7, Huh-7PX, Huh-7.5)) | DQ-BSA fluorescence signal ([5]; autophagy-sufficient HLE cells) |
| --- | --- | --- | --- | --- | --- | --- | --- | --- |
| CCC(=O)N1CCN(c2ccc(-n3c(=O)ccc4cnc5ccc(-c6cnc7ccccc7c6)cc5c43)cc2C(F)(F)F)CC1 [Torin1] | decreased p62 levels | promote ARF6 positive microvesicles | decreased total exosome production and glypican3 positive exosomes | degrades GPC3 and Tsg101 | leads to GPC3 and CD63 degradation | degrades CD63-GFP chimera protein | could only be induced following Torin1 treatment | increased |
| CO/C1=C\C(C)=C\[C@@H](C)[C@@H](O)[C@@H](C)C/C(C)=C/C=C/[C@H](OC)[C@@H]([C@@H](C)[C@@H](O)[C@H](C)[C@@]2(O)C[C@@H](O)[C@H](C)[C@@H](C(C)C)O2)OC1=O [Bafilomycin A1] |  |  | increased exosome release and glypican-positive exosomes | accumulates GPC3 expression |  | induced its expression |  |  |
